# In paper PMC5814047, “Peptidic inhibitors of insulin-degrading enzyme with potential for dermatological applications discovered via phage display” (PLoS ONE, 2018):
# Where “and” joins values, the source holds several entries; their conditions need not be identical. Equal entries are not always repeated. Bridge positions count the residues as written; N and C are the ends. Peptide text beside a SMILES is read from it.
# Key:
# Type in all cases: cell-based
# [1] = tested on: alpha-1 type I collagen in primary murine skin fibroblasts; assay: Western blotting of cell-associated alpha-1 type I collagen; conditions: for COL1A1 Adj. Band Vol. normalized to control on each gel: control = Day 0 COL1A1+DMSO sample; for Normalized COL1A1/GAPDH ratio, Mean: mean of 4 replicates; for COL1A1/GAPDH ratio normalized to Day 0, DMSO only control, Mean: mean of 4 replicates (Figure 4E)
# Experimental: (§1) Insulin promotes wound healing and overall skin health by affecting a number of processes, including cell proliferation, cell migration, and the production and secretion of ECM components, particularly type I collagen. We therefore assessed the ability of P12-3A to influence these processes in cultured skin fibroblasts and keratinocytes. To that end, primary mouse skin fibroblasts were grown for 4 d in multiple concentrations of insulin in the presence or absence of P12-3A, and insulin concentration over time was monitored by ELISA. […] Finally, the effects of P12-3A on collagen production in were assessed at both the transcriptional and the posttranslational level in confluent monolayers of fibroblasts. After 4 d of treatment with P12-3A (100 μM), mRNA levels for the major form of collagen, alpha-1 type I collagen (COL1A1), were quantified by RT-PCR and found to be increased to ~2.6 times the levels of untreated cells (Fig 4C). To assess overall levels of collagen production and secretion, we quantified levels of hydroxyproline, a modified amino acid present almost exclusively in collagen proteins. […] Western blotting also confirmed that mature, cell-associated collagen levels were increased in the presence of P12-3A (Fig 4E).
# (§2) Fig 4 Effects of P12-3A on cultured skin cells. A, Insulin concentrations as a function of time in logarithmically growing primary murine skin fibroblasts in the absence or presence of P12-3A (100 μM). […] Data are mean ± SEM of 4 independent replications. *P<0.05, **P<0.01. B, Proliferation of cells in the absence or presence of P12-3A (100 μM). Data are mean ± SEM of 6 independent replications. […] C,D,E, P12-3A (100 μM) potentiates insulin-induced collagen production in skin fibroblasts. Collagen production was assessed by COL1A1 mRNA levels (C), levels of hydroxyproline secreted into the medium (D), and cell-associated mature alpha-1 type I collagen levels detected by Western blotting (E). Data are mean ± SD of 4 independent replications. *P<0.05, **P<0.01. […] Migration of HaCaT cells 48 h after induction of a scratch wound in the presence of the indicated quantities of insulin and/or P12-3A (100 μM). Data are mean ± SEM of 6 independent replications. *P<0.05, **P<0.01.
# Protein was collected using the M-Per Mammalian Extraction Reagent and the concentration was quantified using the Pierce™BCA Protein Assay Kit according to manufacturer’s recommendations (Thermo Fisher Scientific, Waltham, MA, USA). Protein (30 μg/well) was separated SDS-PAGE under reducing conditions using Novex™ 10% polyacrylamide tris-glycine mini gels and transferred to nitrocellulose membranes as described. Briefly, membranes were blocked in 5% non-fat milk in tris-buffered saline supplemented with 0.2% Tween-20 (TBST), cut into segments and incubated for 1 h at room temperature with anti-alpha-1 type I collagen (1:5000) and anti-GAPDH (1:10,000) antibodies, washed extensively in TBST, then probed with anti-rabbit (1:20,000) or anti-goat (1:50,000) secondary antibodies, respectively, and detected by enhanced chemoluminescence using SuperSignal West Pico Substrate. Protein expression, normalized to GAPDH levels, was quantified using the band analysis tools of ImageLab software, version 4.1 (Bio-Rad Laboratories, Inc., Hercules, CA, USA).
# [2] = tested on: cultured skin cells; assay: Toxicity in cell culture experiments
# Description: Although a variety of potent and selective IDE inhibitors have been developed, current inhibitors are difficult to synthesize, expensive to generate and/or contain chemical moieties or constituents with established or undetermined potential for toxicity. Due to these and other considerations, existing IDE inhibitors are poorly suited for topical applications. To overcome these limitations, in the present study we aimed to develop peptidic inhibitors of IDE suitable for use in wound healing or cosmetic applications. […] To that end, we used phage display technology to select for a range of peptides that bind to IDE with strong affinity, which were then screened for resistance to degradation by IDE.
# [3] = tested on: hydroxyproline secreted by primary murine skin fibroblasts; assay: Hydroxyproline secretion into medium
# Experimental: as §1, §2
# For quantitation of hydroxyproline secretion by primary murine skin fibroblasts, cells (1 x 10^5/well) were plated in 24-well plates DMEM supplemented with 10% FBS, 2mM glutamine, penicillin, streptomycin and 100 nM insulin, in the absence or presence of 100 μM P12-3A. After incubation for 4 days, the conditioned medium was removed, centrifuged at 1000 x g for 10 min to remove cellular debris, and hydroxyproline levels were quantified using the Hydroxyproline Assay Kit according to manufacturer’s recommendations (Sigma-Aldrich, St. Louis, MO, USA).
structure (smiles),measurement,setting,value
CC(C)C[C@H](NC(=O)[C@H](CO)NC(=O)[C@@H](N)CCC(N)=O)C(=O)N1CCC[C@H]1C(=O)N[C@@H](Cc1c[nH]c2ccccc12)C(=O)N[C@H]1CSSC[C@@H](C(=O)N[C@H](C(=O)N[C@H](C(N)=O)[C@@H](C)O)C(C)C)NC(=O)[C@H](Cc2c[nH]cn2)NC(=O)[C@@H]2CCCN2C(=O)[C@H](Cc2ccc(O)cc2)NC1=O [P12-3A] (H-QSLPWCYPHCVT-NH2; disulfide 6-10 (inferred)),"COL1A1/GAPDH ratio normalized to Day 0, DMSO only control","[1]; Day 0, individual replicates",102.562 and 78.683 and 108.954 and 116.015
same,Normalized COL1A1/GAPDH ratio from same sample,"[1]; Day 0, individual replicates",1.131 (2×) and 0.868 (2×) and 1.202 (2×) and 1.28 and 1.280
same,COL1A1 Adj. Band Vol. normalized to control on each gel,"[1]; Day 0, individual replicates",1.022 and 0.7932 and 0.9786 and 1.091
same,"Normalized COL1A1/GAPDH ratio, Mean",[1]; Day 0,1.120
same,"COL1A1/GAPDH ratio normalized to Day 0, DMSO only control, Mean",[1]; Day 0,102
same,Normalized COL1A1/GAPDH ratio from same sample,"[1]; Day 4, individual replicates",4.269 (2×) and 4.793 (2×) and 3.93 and 3.135 (2×) and 3.930
same,COL1A1 Adj. Band Vol. normalized to control on each gel,"[1]; Day 4, individual replicates",3.82 and 4.41 and 3.218 and 2.717
same,"Normalized COL1A1/GAPDH ratio, Mean",[1]; Day 4,4.032
same,"COL1A1/GAPDH ratio normalized to Day 0, DMSO only control, Mean",[1]; Day 4,345
same,"mature, cell-associated collagen levels",[1]; in the presence of P12-3A (100 μM),increased
same,toxicity in cell culture experiments,[2],no evidence of toxicity
same,hydroxyproline levels secreted into the medium,"[3]; 100 μM P12-3A, 100 nM insulin, 4 days",~ 4.6 times that secreted by untreated cells
same,"Hydroxyproline, Mean","[3]; from standard curve, N 4",0.989 ug/well
same,Hydroxyproline,"[3]; from standard curve, individual replicates",0.7793 ug/well and 1.026 ug/well and 0.6312 ug/well and 1.309 ug/well
same,"Hydroxyproline, Normalized, Mean","[3]; normalized to control mean (1.000), N 4",4.585
same,"Hydroxyproline, Normalized","[3]; normalized to control mean (1.000), individual replicates",3.613 and 4.758 and 2.926 and 6.069
same,"Hydroxyproline quantification, OD560","[3]; raw OD560, individual replicates",0.849 and 1.1137 and 0.6903 and 1.4165
